Test results: US9631225B2, “Luciferase-based assays” (Promega Corporation, priority 2002, dated 2017)

What was measured:
[1] = molecular target: T1, firefly luciferase (QuantiLum® luciferase) (Photinus pyralis, UniProt P08659); experiment: Protection of firefly luciferase reaction from inhibition by isoliquirtigenin (ILT); format: biochemical; settings: ILT 100 μM
T1 construct: purchased Promega Corporation
Experimental: (§1) In this experiment, several tolerance enhancing agents were evaluated for their ability to protect luciferases from a known luciferase inhibitor, isoliquirtigenin (ILT) (100 μM, Sigma Chemical). ILT was added to luciferase reactions and the potential tolerance enhancing agents were evaluated for their ability to protect the luciferase from inhibition.
The basic firefly luciferase reactions contained 20 mM HEPES (Sigma Chemical) at pH 8.0, 6.4 mM Magnesium Sulfate (Fisher Scientific), 20 mM Dithiothreitol (City Chemical), 0.63 mM Coenzyme A (Pharmacia Biochemical), 0.4 mM EDTA (Sigma Chemical), 4.0 μM Luciferin (Promega Biosciences), 0.56 mM ATP (Pharmacia Biochemical), and 1.3×10^−6 mg/ml firefly luciferase (QuantiLum® luciferase, Promega Corporation).
(§2) ILT was solubilized at 100 mM in dimethyl sulfoxide (Sigma Chemical). ILT was diluted 1:1000 and the protectors were diluted into the reaction mix before the reaction was initiated by the addition of luciferase.
(§3) Reaction volume for each sample was 100 μl. Luminescence was integrated for 0.5 seconds per sample in a Turner Biosystems Veritas® luminometer immediately after luciferase was added to the reactions and the reactions were mixed. All measurements were done in triplicate.
(§4) The relative protection provided by each compound is calculated as difference between the luminescence generated in the presence and the absence of the protector divided by the total amount of inhibition as represented by the following equation: (L1−L2)/(L3−L4) wherein L1 represents luminescence with inhibitor and tolerance enhancing agent; L2 represents luminescence with inhibitor and no tolerance enhancing agent; L3 represents luminescence with no inhibitor and no tolerance enhancing agent; and L4 represents luminescence with inhibitor and no tolerance enhancing agent.
(§5) The relative protection in the presence of no tolerance enhancing agent, therefore, is 0% and in the absence of an inhibitor is 100%. The reactions used to generate luminescence in the absence of either inhibitor or tolerance enhancing agent still contained the solvent utilized to solubilize the inhibitor with which the reaction was to be compared.

Renilla luciferase = molecular target: T2, Renilla luciferase (Renilla reniformis, UniProt P27652); experiment: Protection of Renilla luciferase reaction from inhibition by isoliquirtigenin (ILT); format: biochemical; settings: ILT 100 μM
T2 construct: purchased ChemiCon Chemicals
T2 sequence (P27652 1-311): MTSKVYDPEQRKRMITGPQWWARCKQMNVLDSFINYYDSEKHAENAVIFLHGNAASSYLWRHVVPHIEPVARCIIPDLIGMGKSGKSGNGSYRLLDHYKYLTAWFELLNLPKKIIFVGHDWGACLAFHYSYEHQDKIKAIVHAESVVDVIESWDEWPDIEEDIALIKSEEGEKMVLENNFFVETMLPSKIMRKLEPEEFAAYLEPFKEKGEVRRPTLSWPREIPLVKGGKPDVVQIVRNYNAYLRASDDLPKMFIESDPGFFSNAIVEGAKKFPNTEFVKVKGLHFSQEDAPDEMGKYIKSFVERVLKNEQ
Experimental: as §1
The basic Renilla luciferase reactions contained 100 mM Potassium Phosphate buffer (Sigma Chemical) at pH 7.4, 500 mM Sodium Chloride (Fisher Scientific), 1.0 mM EDTA (Sigma Chemical), 200 nM Coelenterazine (Promega Biosciences), 0.1% Gelatin (Sigma Chemical) and 0.12 nmol/ml Renilla luciferase (ChemiCon Chemicals).
as §2, §3, §4, §5

[2] = protector reaction concentration 0.02%
[3] = protector reaction concentration 0.10%

T1 sequence (P08659 whole entry): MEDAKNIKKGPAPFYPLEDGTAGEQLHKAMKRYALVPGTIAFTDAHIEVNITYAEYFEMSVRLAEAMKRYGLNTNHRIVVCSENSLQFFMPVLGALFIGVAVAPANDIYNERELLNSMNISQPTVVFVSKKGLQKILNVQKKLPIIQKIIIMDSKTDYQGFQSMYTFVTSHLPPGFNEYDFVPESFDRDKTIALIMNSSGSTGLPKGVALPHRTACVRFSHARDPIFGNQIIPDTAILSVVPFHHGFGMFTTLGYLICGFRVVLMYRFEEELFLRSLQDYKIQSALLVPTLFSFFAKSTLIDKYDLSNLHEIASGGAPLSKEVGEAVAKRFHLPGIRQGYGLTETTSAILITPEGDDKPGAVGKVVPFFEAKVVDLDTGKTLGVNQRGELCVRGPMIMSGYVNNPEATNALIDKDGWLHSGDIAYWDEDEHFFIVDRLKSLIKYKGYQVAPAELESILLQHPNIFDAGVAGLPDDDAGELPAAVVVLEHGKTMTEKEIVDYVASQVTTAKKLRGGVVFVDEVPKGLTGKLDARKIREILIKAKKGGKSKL

Compound | Relative Protection Against ILT [1, 2] | Relative Protection Against ILT (Renilla luciferase; [3]) | other results
C[C@H](CCC(=O)NCCC[N+](C)(C)CCCS(=O)(=O)[O-])[C@H]1CC[C@H]2[C@@H]3[C@H](O)C[C@@H]4C[C@H](O)CC[C@]4(C)[C@H]3C[C@H](O)[C@]12C [CHAPS® detergent, 3-([3-Cholamidopropyl]dimethylammonio)-1-propanesulfonate] | 18% | 14% | Relative Protection Against ILT [1, 3]: 57%; Relative Protection Against ILT (Renilla luciferase; protector reaction concentration 0.50%): 97%
CCCCCCCCCCCCCCCC[N+](C)(C)C.[Br-] [CTAB, cetyltrimethylammonium] | 100% | 95% | 
OC[C@H]1O[C@@](CO)(O[C@H]2O[C@H](CO)[C@@H](O)[C@H](O)[C@H]2O)[C@@H](O)[C@@H]1O [Sucrose] |  |  | Relative Protection Against ILT ([1]; protector reaction concentration 0.5% (w:v)): 32%; Relative Protection Against ILT (Renilla luciferase; protector reaction concentration 0.10% (w:v)): 24%
OC[C@H]1O[C@@H]2O[C@H]3[C@H](O)[C@@H](O)[C@@H](O[C@H]4[C@H](O)[C@@H](O)[C@@H](O[C@H]5[C@H](O)[C@@H](O)[C@@H](O[C@H]6[C@H](O)[C@@H](O)[C@@H](O[C@H]7[C@H](O)[C@@H](O)[C@@H](O[C@H]1[C@H](O)[C@H]2O)O[C@@H]7CO)O[C@@H]6CO)O[C@@H]5CO)O[C@@H]4CO)O[C@@H]3CO [α-Cyclodextrin, α-Cyclodextrin (Cyclohexaamylose)] |  |  | Relative Protection Against ILT ([1]; protector reaction concentration 7 mM): 61%; Relative Protection Against ILT (Renilla luciferase; protector reaction concentration 1.4 mM): 60%
Deoxycholate | 81% | 72% | 
nonylphenol polyethylene glycol ether (C9H19C6H—(OCH2CH2)9OH) [Tergitol NP-9® detergent] | 88% | 97% | 
